Source: ChEMBL document CHEMBL4376816, “Discovery of the Oral Leukotriene C4 Synthase Inhibitor (1S,2S)-2-({5-[(5-Chloro-2,4-difluorophenyl)(2-fluoro-2-methylpropyl)amino]-3-methoxypyrazin-2-yl}carbonyl)cyclopropanecarboxylic Acid (AZD9898) as a New Treatment for Asthma” (J Med Chem, 2019)
Calls of active or inactive are those of the source. The calls are words filed in the database; no cut-off is given here.

Legend:
[1] = Octanol/Sodium phosphate buffer partition coefficient, log D of compound at pH 7.4 at 1 mg incubated for overnight under shaking condition by LC-MS/MS analysis; type: physicochemical
[2] = Intrinsic clearance in human hepatocytes at 1 uM assessed as per million cells after 2 to 60 mins by LC-MS/MS analysis; type: ADME, cell-based, Hepatocyte; details: read-out: CLH
[3] = target: T1, Leukotriene C4 synthase (Homo sapiens, UniProt Q16873)
T1 sequence (Q16873 whole entry): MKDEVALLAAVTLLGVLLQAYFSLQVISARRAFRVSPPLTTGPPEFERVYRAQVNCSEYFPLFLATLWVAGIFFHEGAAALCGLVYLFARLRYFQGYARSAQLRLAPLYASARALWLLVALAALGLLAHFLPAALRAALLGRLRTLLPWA

[4] = Displacement of [3H]-GABA/[3]-muscimol from GABA gated chloride channel in Sprague-Dawley rat cortical synoptic membranes by liquid scintillation analysis
[5] = target: T1, Leukotriene C4 synthase; remark: listed apart in the source
[6] = target: T2, Leukotriene C4 synthase (Homo sapiens) (UniProt Q16873); assay: Inhibition of LTC4S in healthy human whole blood assessed as inhibition of calcium ionophore A23187 stimulated cysteinyl leukotrienes production preincuabted for 30 mins followed by calcium ionophore stimulation and measured after 10 mins by LC-MS analysis; type: tissue-based
T2 sequence (whole entry): T1 sequence (Q16873 whole entry)

[7] = target: T2, Leukotriene C4 synthase (Homo sapiens); assay: Inhibition of LTC4S in asthmatic human whole blood assessed as inhibition of calcium ionophore A23187 stimulated cysteinyl leukotrienes production preincuabted for 30 mins followed by calcium ionophore stimulation and measured after 10 mins by LC-MS analysis; type: tissue-based
[8] = target: T2, Leukotriene C4 synthase (Homo sapiens)

| SMILES | logD [1] | hepatocyte CLint at 1 µM [2] | IC50 [4] | other results |
| --- | --- | --- | --- | --- |
| COc1cc(N(CC(C)C)c2ccc(F)c3ccccc23)cnc1C(=O)[C@H]1C[C@@H]1C(=O)O | 2.2 | 56 µL/min/1e6 cells |  |  |
| CCCN(c1cnc(C(=O)[C@H]2C[C@@H]2C(=O)O)c(OC)c1)c1ccc(F)c2ccccc12 | 1.8 | 7.6 µL/min/1e6 cells | 3500 nM |  |
| CCCN(c1cccc(C(F)(F)F)c1)c1cnc(C(=O)[C@H]2C[C@@H]2C(=O)O)c(OC)c1 | 1.2 | 7.2 µL/min/1e6 cells | 19000 nM |  |
| COc1nc(N(CC(C)(C)F)c2cc(C(F)(F)F)ccc2F)cnc1C(=O)[C@H]1C[C@@H]1C(=O)O | 1.2 | 1.5 µL/min/1e6 cells |  | IC50 [3]: 7.8 nM |
| COc1nc(C(=O)[C@@H]2C[C@H]2C(=O)O)ncc1N(CC1CC1)c1ccc(Cl)c2ccccc12 (relative stereo) | 2.9 | 15 µL/min/1e6 cells |  | IC50 [5]: 15.5 nM |
| COc1cc(N(CC(C)(C)O)c2cccc(C(F)(F)F)c2)cnc1C(=O)[C@H]1C[C@@H]1C(=O)O | 0 |  | > 100000 nM |  |
| CC(c1cc2ccccc2s1)N(O)C(N)=O (stereo not given) |  |  |  | inhibition [6]: Active; inhibition [7]: Active |
| COc1cc(N(CC(C)(C)F)c2cccc(C(F)(F)F)c2)cnc1C(=O)[C@H]1C[C@@H]1C(=O)O | 0.9 | < 1.5 µL/min/1e6 cells | 54000 nM |  |
| COc1cc(N(CC(C)C)c2cccc(C(F)(F)F)c2)cnc1C(=O)[C@H]1C[C@@H]1C(=O)O | 1.6 | 2.9 µL/min/1e6 cells |  |  |
| COc1cc(N(CC2CC2)c2ccc(Cl)cc2)cnc1C(=O)c1cccc(C(=O)O)c1 | 1.7 | 28 µL/min/1e6 cells |  |  |
| COc1nc(N(CC(C)C)c2cc(Cl)c(F)cc2F)cnc1C(=O)[C@H]1C[C@@H]1C(=O)O | 1.8 | 3 µL/min/1e6 cells |  | IC50 [5]: 0.28 nM; IC50 [3]: 4.1 nM |
| CCN(c1cccc(C(F)(F)F)c1)c1cnc(C(=O)[C@H]2C[C@@H]2C(=O)O)c(OC)c1 | 0.7 | 3.1 µL/min/1e6 cells | 20000 nM |  |
| COc1cc(N(CC(F)(F)F)c2cccc(C(F)(F)F)c2)cnc1C(=O)[C@H]1C[C@@H]1C(=O)O | 1.1 |  |  |  |
| COc1cc(N(Cc2ccc(F)cc2)c2cccc(C(F)(F)F)c2)cnc1C(=O)[C@H]1C[C@@H]1C(=O)O | 1.9 | 4.2 µL/min/1e6 cells |  |  |
| COc1cc(N(CC2CC2)c2ccc(Cl)c3ccccc23)cnc1C(=O)CCCC(=O)O | 2.8 | 6.8 µL/min/1e6 cells |  |  |
| O=C(Nc1ccc(Cc2ccc(NC(=O)c3ccccc3)c(C(=O)O)c2)cc1C(=O)O)c1ccccc1 |  |  |  | IC50 [5]: 1900 nM; inhibition [8]: inactive |
| COc1nc(C(=O)[C@H]2C[C@@H]2C(=O)O)ncc1N(CC1CC1)c1cccc2ccccc12 |  |  |  | IC50 [5]: 2.4 nM |
| COc1ccccc1C(=O)Nc1ccc(C(=O)c2ccc(N(C)c3ccc(Cl)cc3)cn2)cc1C(=O)O |  |  |  | IC50 [5]: 35 nM |
| COc1nc(N(CC(C)C)c2cc(C(F)(F)F)ccc2F)cnc1C(=O)[C@H]1C[C@@H]1C(=O)O | 2 | 2.9 µL/min/1e6 cells |  | IC50 [5]: 0.36 nM; IC50 [3]: 3.5 nM |

Now from value to compound, other results behind:

| logD [1] | hepatocyte CLint at 1 µM [2] | IC50 [4] | SMILES | other results |
| --- | --- | --- | --- | --- |
| 1.4 | 3.9 µL/min/1e6 cells |  | COc1cc(N(CC(C)C)c2cc(C(F)(F)F)ccc2F)cnc1C(=O)[C@H]1C[C@@H]1C(=O)O | IC50 [3]: 6.8 nM |
| 1.3 | 1.8 µL/min/1e6 cells |  | COc1cc(N(CC2CC2)c2ccc(Cl)cc2)cnc1C(=O)[C@@H]1C[C@H]1C(=O)O (relative stereo) |  |
| 1.4 | 3.8 µL/min/1e6 cells | 2900 nM | CCN(c1cnc(C(=O)[C@H]2C[C@@H]2C(=O)O)c(OC)c1)c1ccc(F)c2ccccc12 |  |
| 1.1 | 1.3 µL/min/1e6 cells |  | COc1cc(N(CC2CC2)c2cc(Cl)ccc2F)cnc1C(=O)[C@H]1C[C@@H]1C(=O)O |  |
| 0.65 | 3 µL/min/1e6 cells |  | COc1cc(N(CC2CC2)c2ccccc2)cnc1C(=O)[C@H]1C[C@@H]1C(=O)O |  |
| 1.3 | 4.9 µL/min/1e6 cells |  | COc1cc(N(CC(C)C)c2cc(Cl)c(F)cc2F)cnc1C(=O)[C@H]1C[C@@H]1C(=O)O |  |
| 1.9 | 5.4 µL/min/1e6 cells | 640 nM | COc1cc(N(CC2CC2)c2ccc(F)c3ccccc23)cnc1C(=O)[C@H]1C[C@@H]1C(=O)O |  |
| 1.2 | 3.1 µL/min/1e6 cells | 3000 nM | COc1cc(N(CC2CC2)c2ccc(F)c(Cl)c2)cnc1C(=O)[C@H]1C[C@@H]1C(=O)O |  |
| 1.2 | < 1.1 µL/min/1e6 cells | 8200 nM | COc1cc(N(CC2CC2)c2cc(C(F)(F)F)ccc2F)cnc1C(=O)[C@H]1C[C@@H]1C(=O)O |  |
| 0.8 | < 1 µL/min/1e6 cells |  | COc1cc(N(CC(C)(C)F)c2cc(C(F)(F)F)ccc2F)cnc1C(=O)[C@H]1C[C@@H]1C(=O)O |  |
| 1.4 | 2.3 µL/min/1e6 cells | 11000 nM | COc1cc(N(CC2CC2)c2cccc(C(F)(F)F)c2)cnc1C(=O)[C@H]1C[C@@H]1C(=O)O |  |
| 1.6 | 4.3 µL/min/1e6 cells |  | COc1cc(N(CC2CC2)c2ccc(Cl)c(Cl)c2)cnc1C(=O)[C@H]1C[C@@H]1C(=O)O |  |
| 1.1 | < 1.5 µL/min/1e6 cells | 5400 nM | COc1cc(N(CC2CC2)c2cc(Cl)c(F)cc2F)cnc1C(=O)[C@H]1C[C@@H]1C(=O)O |  |
| 0.8 | < 1.7 µL/min/1e6 cells |  | COc1cc(N(CC(C)(C)F)c2cc(Cl)c(F)cc2F)cnc1C(=O)[C@H]1C[C@@H]1C(=O)O |  |
